From patent US6844342B2, “Heterocyclic substituted 2-methyl-benzimidazole antiviral agents” (Bristol-Myers Squibb Company, priority 2000, dated 2005)

Test system: respiratory syncytial virus Long strain
Experiment: Antiviral activity against respiratory syncytial virus in HEp-2 cells (MTT cell protection)
Format: cell-based
Experimental: The antiviral activity of these compounds against respiratory syncytial virus was determined in HEp-2 (ATCC CCL 23) cells that were seeded in 96 well microtiter plates at 1.5×10^4 cells/100 μL/well in DMEM (Dulbecco's Modified Eagle's Medium) supplemented with penicillin, streptomycin, glutamine, and 10% fetal bovine serum. The cells were incubated overnight at 37° C., the culture medium was removed, and cells were infected (100 μL volume in medium containing 2% fetal bovine serum) with respiratory syncytial virus Long strain at 5000 plaque forming units/mL. The compounds, 100 μL at appropriate dilution, were added to the cells 1 hour post infection. After incubation for 4 days at 37° C., the plates were stained with MTT solution (3-[4,5-dimethlythiazol-2-yl]-2,5-diphenyltetrazolium bromide) and incubated for 4 hours at 37° C. The media was aspirated from the cells and 100 μL/well of acidified isopropanol (per liter: 900 mL isopropanol, 100 mL Triton X100, and 4 mL conc. HCl) was added. Plates were incubated for 15 minutes at room temperature with shaking, and an optical density (OD 540) reading at 540 nanometer (nm) was obtained. The optical density reading is proportional to the number of viable cells. The increase in the number of viable cells reflects the protective, antiviral activity of the compound. […]

- EC50 (human respiratory syncytial virus, HEp-2 cells infected with RSV Long strain, compound added 1 hour post infection, 4 days at 37° C., read-out: EC50 (concentration that produces 50% cell protection)): 3 µM
Compound: NC(=O)c1ncn([C@@H]2O[C@H](CO)[C@@H](O)[C@H]2O)n1 [Ribavirin]
- cell protection (at 2.5 μg/mL (corresponding to 10.2 μM), HEp-2 cells, RSV Long strain): 100%
